Measurements: patent US9434739B2, “Systemic insecticide” (priority 2007, dated 2016)

What was measured:
Aphis gossypii = assay: Soil drenching with single agent and admixture on cucumber against Aphis gossypii (Test Example 8); assay type: in vivo; settings: for Preventive value: 2 days after release
Description: Cucumber seedlings were treated by soil drenching with a single agent and an admixture adjusted to a predetermined concentration with water. The chemical was absorbed through the root for two days, and four adults of Aphis gossypii for each seedling were released on the seedlings. Thereafter, the seedlings were allowed to stand in a thermostatic chamber of 25° C. 2 days after the release, the number of parasites on the leaves was observed. The density index in each treated plot was determined by presuming the density in the non-treated plot to be 100. The preventive value was calculated by the following equation. Preventive value=100−density index
(§1) When the density index exceeded 100, the preventive value was regarded as 0 (zero).
(§2) Theoretical value=A+B−(A×B)/100 Colby's formula
(§3) where A: preventive value when treatment was performed only with compound 4, and
B: preventive value when treatment was performed only with each of acephate and imidacloprid.
When the numerical value for the admixture in Table 10 exceeded the theoretical value calculated by the Colby's formula shown in Table 11, the admixture was determined to have a synergistic effect.

Rhopalosiphum padi [1] = assay: Root soaking with single agent and admixture on wheat against Rhopalosiphum padi (Test Example 9); assay type: in vivo; settings: for Preventive value: six days after release
Description: The root of wheat seedlings 48 hr after seeding was soaked for 72 hr in an admixture solution, adjusted to a predetermined concentration, as a 10% aqueous acetone solution. 72 hrs after the treatment, 10 larval Rhopalosiphum padi for each seedling were released on the seedlings. Thereafter, the seedlings were allowed to stand in a thermostatic chamber of 25° C. The number of parasites on stems and leaves was observed six days after the release. The density index of each of the treated plots was determined by presuming the density of the non-treated plots to be 100, and the preventive value was calculated by the same equation as in Test Example 8.
as §1, §2, §3
B: preventive value when treatment was performed only with each of acetamiprid, acephate, and imidacloprid.
When the preventive value against Rhopalosiphum padi for the admixture in Table 12 exceeded the theoretical value calculated by the Colby's formula shown in Table 13, the admixture was determined to have a synergistic effect.

Myzus persicae Sulzer = assay: Reference Test: cabbage leaf disk spraying treatment against Myzus persicae Sulzer; assay type: in vivo; settings: 20 ppm test solution spread over cabbage leaf disk, first instar larvae, three days after release, 25° C.
Source text: A leaf disk having a diameter of 2.8 cm was cut out from a cabbage grown in a pot and was placed in a 5.0 cm-Schale. Four adult aphids of Myzus persicae Sulzer were released in the Schale. One day after the release of the adult aphids, the adult aphids were removed. The number of larvae at the first instar born in the leaf disk was adjusted to 10, and 20 ppm of a test solution which had been prepared as a 50% aqueous acetone solution (0.05% Tween 20 added) was spread over the cabbage leaf disk. The cabbage leaf disk was then air dried. Thereafter, the Schale was lidded and was allowed to stand in a thermostatic chamber of 25° C. […] Mortality (%)={number of dead larvae/(number of survived larvae+number of dead larvae)}×100

[2] = test system: Trialeurodes uaporariorum; assay: Soil drenching treatment test on cucumber against Trialeurodes uaporariorum (Test Example 5); assay type: in vivo; settings: soil drenching of cucumber pot, 0.5 mg/seedling, larvae, 9 days after drenching
Description: Adults of Trialeurodes uaporariorum were released on cucumber seedlings, grown in a pot, for egg laying purposes for two days. 10 days after the start of egg laying, it was confirmed that larvae were hatched from the delivered eggs. The soil in the cucumber pot was drenched with 5 mL of a test solution adjusted to a predetermined concentration with a 10% aqueous acetone solution. The cucumber pot was allowed to stand in a thermostatic chamber of 25° C. (light period 16 hr-dark period 8 hr). 9 days after the drenching, the number of survived larvae was measured, and the mortality of larvae was calculated by the following equation. The test was duplicated. Mortality (%)={(number of larvae before treatment−number of survived larvae)/number of larvae before treatment}×100

Nephotettix cincticeps = assay: Soil drenching treatment test on rice seedlings against Nephotettix cincticeps (Test Example 7); assay type: in vivo; settings: soil drenching of rice pot, 1.0 mg/seedling, second instar larvae, 3 days after release
Description: (§4) Rice seedlings grown in a pot were provided. Soil in the pot was drenched with a test solution adjusted to a predetermined concentration with a 10% aqueous acetone solution. After standing for three days, 10 larvae at the second instar were released on the rice seedling. Thereafter, the pot was allowed to stand in a thermostatic chamber of 25° C. (light period 16 hr-dark period 8 hr). 3 days after the release, the number of survived larvae was measured, and the mortality of larvae was calculated by the same equation as in the Reference Test. The test was duplicated.

Laodelphax stratella = assay: Soil drenching treatment test on rice seedlings against Laodelphax stratella (Test Example 6); assay type: in vivo; settings: soil drenching of rice pot, 0.5 mg/seedling, second instar larvae, 3 days after release
Description: as §4, with “seedlings.” for “seedling.”

Rhopalosiphum padi [3] = assay: Root soaking treatment test on wheat seedlings against Rhopalosiphum padi (Test Example 3 and Comparative Tests); assay type: in vivo; settings: wheat seedling root soaked 72 hr in test solution (100 ppm), 20 μg/seedling, 25° C.
Description: The root of wheat seedlings 48 hr after seeding was soaked for 72 hr in a test solution (100 ppm) prepared as a 10% aqueous acetone solution. 72 hrs after the treatment, 10 larval Rhopalosiphum padi were released for each seedling. Thereafter, the seedlings were allowed to stand in a thermostatic chamber of 25° C. The number of parasites on stems and leaves was observed six days after the release, and the density index was calculated by the same equation as in Test Example 1. The test was duplicated.
For compounds 8 and 9 described in Table 6, a insecticidal effect against Rhopalosiphum padi was examined in the same manner as in Test Example 3.

Helicoverpa armiger = settings: described in WO 2004/060065 and Applied and Environmental Microbiology (1995), 61(12), 4429-35; cited from earlier work
Plutella xylostella = settings: described in WO 2004/060065 and Applied and Environmental Microbiology (1995), 61(12), 4429-35; cited from earlier work
Tenebrio molitor = settings: described in WO 2004/060065 and Applied and Environmental Microbiology (1995), 61(12), 4429-35; cited from earlier work
[4] = Compound 4 0 mg/seedling, acephate 0.1 mg/seedling, imidacloprid 0.005 mg/seedling
[5] = Compound 4 0 mg/seedling, other insecticide alone (acephate 0.1 mg/seedling, imidacloprid 0.005 mg/seedling)
[6] = Compound 4 0 μg/seedling, acetamiprid 0.0078, acephate 0.5, imidacloprid 0.0078 μg/seedling
[7] = Compound 4 0 μg/seedling, other insecticide alone (acetamiprid 0.0078, acephate 0.5, imidacloprid 0.0078 μg/seedling)
[8] = Compound 4 0.05 mg/seedling, alone (—) or with acephate 0.1 mg/seedling or imidacloprid 0.005 mg/seedling
[9] = Compound 4 0.5 μg/seedling, alone (—) or with acetamiprid 0.0078, acephate 0.5 or imidacloprid 0.0078 μg/seedling

In the case of `COP(=O)(NC(C)=O)SC` (centres unmarked) [Acephate, acephate], the “Theoretical value calculated by Colby's formula” value (“Theoretical value calculated” for short) (Aphis gossypii; [4]) is reported as 70, the Preventive value (Aphis gossypii; [5]) is reported as 70 and the “Theoretical value calculated” value (Rhopalosiphum padi [1]; [6]) is reported as 55.6. The Preventive value (Rhopalosiphum padi [1]; [7]) was 55.6.

In the case of `C/C(=N\C#N)N(C)Cc1ccc(Cl)nc1` [Acetamiprid, acetamiprid], the “Theoretical value calculated” value (Rhopalosiphum padi [1]; [6]) is reported as 5.9 and the Preventive value (Rhopalosiphum padi [1]; [7]) is reported as 5.9.

For `CC1(COC(=O)C2CC2)C2C[C@H](O)[C@@]3(C)Oc4cc(-c5cccnc5)oc(=O)c4[C@H](O)C3[C@@]2(C)CC[C@@H]1OC(=O)C1CC1` (some centres unmarked) [Compound 4], the Mortality (Myzus persicae Sulzer) was 100%, the “Theoretical value calculated” value (Aphis gossypii; [8]) was 0 and the Preventive value (Aphis gossypii; [8]) was 0. For the same molecule, the “Mortality (%)” value [2] was 67%, the “Mortality (%)” value (Nephotettix cincticeps) was 60% and the “Theoretical value calculated” value (Rhopalosiphum padi [1]; [9]) was 0. For the same molecule, the Preventive value (Rhopalosiphum padi [1]; [9]) was 0, the “Mortality (%)” value (Laodelphax stratella) was 34% and the “Density index 6 days after release” value (Rhopalosiphum padi [3]) was 5.

For `CC1(COC(=O)C2CC2)C2CC(=O)[C@@]3(C)Oc4cc(-c5cccnc5)oc(=O)c4[C@H](O)C3[C@@]2(C)CC[C@@H]1OC(=O)C1CC1` (some centres unmarked) [Compound 6], the Mortality (Myzus persicae Sulzer) was 100% and the “Density index 6 days after release” value (Rhopalosiphum padi [3]) was 0.

For `CC1(COC(=O)C2CC2)C2CC[C@@]3(C)Oc4cc(-c5cccnc5)oc(=O)c4[C@H](O)C3[C@@]2(C)CC[C@@H]1OC(=O)C1CC1` (some centres unmarked) [Compound 7], the Mortality (Myzus persicae Sulzer) was 100% and the “Density index 6 days after release” value (Rhopalosiphum padi [3]) was 41.

For `O=[N+]([O-])NC1=NCCN1Cc1ccc(Cl)nc1` [Imidacloprid, imidacloprid], the “Theoretical value calculated” value (Aphis gossypii; [4]) was 16, the Preventive value (Aphis gossypii; [5]) was 16 and the “Theoretical value calculated” value (Rhopalosiphum padi [1]; [6]) was 28.6. It also gave a Preventive value (Rhopalosiphum padi [1]; [7]) of 28.6.

In the case of pyripyropene A, the insecticidal effect (Helicoverpa armiger) is listed as “has insecticidal effect”, the insecticidal effect (Plutella xylostella) is listed as “has insecticidal effect” and the insecticidal effect (Tenebrio molitor) is listed as “has insecticidal effect”.
